Assays:
[1] = tested on: Escherichia coli (E. coli) strain WP2uvrA; experiment: Bacterial Reverse Mutation Assay (E. coli); format: cell-based; settings: for Dose level with reductions in mean numbers of revertant colonies (toxicity): WP2uvrA
Procedure: The objective of this study was to evaluate C2E2 for its ability to induce reverse mutations at the histidine locus in Salmonella typhimurium tester strains TA98, TA100, TA1535, and TA1537, and at the tryptophan locus of Escherichia coli (E. coli) strain WP2uvrA in the presence or absence of an exogenous mammalian metabolic activation system (S9).
C2E2 was evaluated in an initial mutagenicity assay in all five tester strains at dose levels of 5.00, 16.0, 50.0, 160, 500, 1600, and 5000 μg/plate with and without S9. C2E2 was from Lot 050 obtained using Method 2. C2E2 was prepared in Cell Culture Grade Water vehicle and formed a transparent colorless solution. […] The reductions in the numbers of revertant colonies and the enhanced background lawn growth are indicative of C2E2 treatment-related toxicity. With exception to the enhanced background lawn in TA1537 without S9, all other background lawns in all strains, with and without S9, were normal indicating there was appropriate bacterial growth during treatment to express a mutagenic event. There were no relevant increases in the numbers of revertant colonies observed at any dose level with any strain in the absence or presence of S9 metabolic activation.

[2] = Protonation constants by potentiometric titration; format: physicochemical; settings: 5 mM ligand in 0.15 M KCl
Procedure: The protonation constants for C2E2 were determined by preparing a 5 mM solution of free ligand in 0.15 M KCl. The constants were calculated from three replicates, with each experiment consisting of a titration with acid, followed by a titration with base. After each addition of titrant, a 30 second equilibration time passed before pH measurement with a Seven Easy pH meter and (Ag/AgCl reference) glass electrode (Metler Tolledo). At the end of the titrations, the presence of C2E2 was confirmed by HPLC-CAD. Evaluation of the titration curve for C2E2 (FIG. 31) identified 6 pKa values that correspond with the three tertiary amines and three carboxylic acids. The values were determined by refinement using […] software. The pKa values determined for C2E2 are consistent with DTPA analogues previously investigated for use as MRI contrast agents with two carboxylic acids are functionalized such as DTPA-BMA and DTPA-BBA (Rizkalla, E. N., et al., Inorganic Chemistry, 32, 582-586, (1993) and Geraldes C. F., et al., Journal of the Chemical Society-Dalton Transactions, 327-335 (1995)).

With `CCOC(=O)CN(CCN(CCN(CC(=O)O)CC(=O)OCC)CC(=O)O)CC(=O)O` [C2E2, 6,9-bis(carboxymethyl)-3-(2-ethoxy-2-oxoethyl)-11-oxo-12-oxa-3,6,9-triazatetradecan-1-oic acid] as the compound, how does the “Dose level with reductions in mean numbers of revertant colonies (toxicity)” value ([1]; with S9) read?
Its value is ≥ 500 μg/plate.

And the “Dose level with reductions in mean numbers of revertant colonies (toxicity)” value ([1]; without S9)?
Its value is 5000 μg/plate.

What about the “Mutagenicity (reverse mutations at the tryptophan locus)” value ([1]; up to 5000 μg/plate, with and without S9) of the same compound?
Its value is “negative”.

What about the PKa2 [2] of the same compound?
Its PKa2 is 4.68 ± 0.02.

And the pKa1 [2]?
The pKa1 was 9.40.

And the pKa3 [2]?
The pKa3 was 3.52 ± 0.03.

And the pKa4 [2]?
The pKa4 was 1.87 ± 0.05.

And the pKa5 [2]?
The pKa5 was 1.76.

And the pKa6 [2]?
Its pKa6 is 1.45.
